Article PMC10584170, “Machine learning-based phenotypic imaging to characterise the targetable biology of Plasmodium falciparum male gametocytes for the development of transmission-blocking antimalarials” (PLOS Pathogens, 2023)

What was measured:
[1] = test system: P. falciparum male gametocytes; test: P. falciparum Dual Gamete Formation Assay (PfDGFA), male readout (exflagellation); type: cell-based, Plasmodium falciparum NF54; conditions: for Average inhibition male (%): average of replicates; for % inhibition male (individual replicates) R1: replicate R1; for % inhibition male (individual replicates) R3: replicate R3; for % inhibition male (individual replicates) R4: replicate R4; for Activity: hit = >50% inhibition in male or female readout in at least 3 replicates, 0 = no class assigned
Summary of the method: (§1)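 Read-outs are automated image counts of exflagellation centres (brightfield, 10 frames over 1 s) and Pfs25-positive female gametes (Cy3 fluorescence).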

[2] = test system: P. falciparum female gametocytes; test: P. falciparum Dual Gamete Formation Assay (PfDGFA), female readout (Pfs25-positive female gametes); type: cell-based, Plasmodium falciparum NF54; conditions: for Average inhibition female (%): average of replicates; for % inhibition female (individual replicates) R1: replicate R1; for % inhibition female (individual replicates) R3: replicate R3; for % inhibition female (individual replicates) R4: replicate R4
Summary of the method: as §1

[3] = 2µM, 24h preincubation with gametocytes prior to induction of gametogenesis
[4] = 2µM, 24h preincubation, hits selected on >50% inhibition in the male readout across replicates
[5] = PfDGFA at 2µM, 24h preincubation
[6] = 2µM, 24h preincubation, hits selected on >50% inhibition in the female readout across replicates
[7] = PfDGFA at 2µM, 24h preincubation with gametocytes prior to induction of gametogenesis
[8] = PfDGFA at 2µM, 24h preincubation with gametocytes
[9] = number of replicates with >50% inhibition in the male readout, 2µM
[10] = number of replicates with >50% inhibition in the female readout, 2µM
[11] = 2µM, 24h preincubation, number of replicates with >50% inhibition in the male readout
[12] = 2µM, 24h preincubation, number of replicates with >50% inhibition in the female readout

| SMILES | Average inhibition male (%) [1, 3] | % inhibition male (individual replicates) R1 [1, 3] | % inhibition male (individual replicates) R3 [1, 3] | % inhibition male (individual replicates) R4 [1, 3] | HitlevelM [1, 4] | Activity [1, 5] | Average inhibition female (%) [2, 3] | % inhibition female (individual replicates) R1 [2, 3] | % inhibition female (individual replicates) R3 [2, 3] | % inhibition female (individual replicates) R4 [2, 3] | HitlevelF [2, 6] | also measured |
| --- | --- | --- | --- | --- | --- | --- | --- | --- | --- | --- | --- | --- |
| CNCCNCc1ccc(-c2ccc(-c3nc4cc(C(F)(F)F)ccc4[nH]3)cc2)cc1.O=C(O)C(F)(F)F [TCMDC-132833] | 23.6% | 9.5% | 12.3% | 50.2% | 1 | 0 | 17.0% | 21.1% | 25.6% | 19.1% | 0 | – |
| CNCCNCc1cccc(-c2ccc(-c3nc4cc(C(F)(F)F)ccc4[nH]3)cc2)c1.O=C(O)C(F)(F)F [TCMDC-132834] | 47.7% | 40.3% | 3.4% | 68.9% | 2 | 0 | 13.1% | 23.3% | 8.2% | 10.1% | 0 | – |
| CNCCNCc1ccc(-c2cccc(-c3nc4cc(F)ccc4[nH]3)c2)cc1.O=C(O)C(F)(F)F [TCMDC-132836] | – | – | – | – | – | – | – | – | – | – | – | % inhibition male (individual replicates) R1 [1, 7]: -5.6%; % inhibition male (individual replicates) R4 [1, 7]: -19.2%; Average inhibition male (%) [1, 5]: -13.9%; % inhibition female (individual replicates) R1 [2, 7]: -0.65%; % inhibition female (individual replicates) R3 [2, 7]: 8.4%; % inhibition female (individual replicates) R4 [2, 7]: 2.6%; Average inhibition female (%) [2, 5]: 2.2% |
| O=C(O)C(F)(F)F.c1cc(CNCCN2CCNCC2)cc(-c2cccc(-c3nc4ccccc4[nH]3)c2)c1 [TCMDC-132859] | 12.0% | 10.9% | -9.7% | 24.9% | 0 | 0 | 17.2% | 18.5% | -13.9% | 47.2% | 0 | – |
| Fc1ccc2[nH]c(-c3cccc(-c4cccc(CNCCN5CCNCC5)c4)c3)nc2c1.O=C(O)C(F)(F)F [TCMDC-132860] | – | – | – | – | – | – | – | – | – | – | – | Average inhibition male (%) [1, 8]: 74.7%; % inhibition male (individual replicates) R1 [1, 8]: 80.2%; % inhibition male (individual replicates) R3 [1, 8]: 48.0%; % inhibition male (individual replicates) R4 [1, 8]: 89.6%; HitlevelM [1, 9]: 3; Average inhibition female (%) [2, 8]: -9.5%; % inhibition female (individual replicates) R1 [2, 8]: 8.6%; % inhibition female (individual replicates) R3 [2, 8]: -31.9%; % inhibition female (individual replicates) R4 [2, 8]: -13.7%; HitlevelF [2, 10]: 0 |
| O=C(O)C(F)(F)F.c1cc(CNCCN2CCNCC2)cc(-c2ccc(-c3nc4ccccc4[nH]3)cc2)c1 [TCMDC-132861] | – | – | – | – | – | – | – | – | – | – | – | % inhibition male (individual replicates) R1 [1, 7]: -18.7%; % inhibition male (individual replicates) R4 [1, 7]: -15.3%; Average inhibition male (%) [1, 5]: -11.2%; % inhibition female (individual replicates) R1 [2, 7]: -3.1%; % inhibition female (individual replicates) R3 [2, 7]: -9.9%; % inhibition female (individual replicates) R4 [2, 7]: 9.1%; Average inhibition female (%) [2, 5]: 1.2% |
| FC(F)(F)c1ccc2[nH]c(-c3ccc(-c4ccc(CNCCN5CCNCC5)cc4)s3)nc2c1.O=C(O)C(F)(F)F [TCMDC-132862] | 44.8% | 46.6% | 56.6% | 89.1% | – | – | 20.7% | 21.1% | 13.2% | 20.9% | – | HitlevelM [1, 11]: 2; HitlevelF [2, 12]: 0 |
| Fc1ccc2[nH]c(-c3cccc(-c4ccc(CNCCN5CCNCC5)cc4)c3)nc2c1.O=C(O)C(F)(F)F [TCMDC-132863] | 43.0% | 23.0% | 12.3% | 70.2% | 2 | 0 | 14.3% | 16.6% | -21.5% | 42.6% | 0 | – |
| Cc1cccc2nc(-c3cccc(-c4cccc(CNCCN5CCNCC5)c4)c3)[nH]c12.O=C(O)C(F)(F)F [TCMDC-132873] | 29.1% | 24.4% | 9.9% | 46.2% | 0 | 0 | 9.7% | 14.0% | 9.9% | 0.33% | 0 | – |
| CN(c1ncc(-c2cccc(CNCc3ccccc3O)c2)cn1)C1CCCCC1 [TCMDC-133137] | – | – | – | – | – | – | – | – | – | – | – | % inhibition male (individual replicates) R1 [1, 7]: -18.7%; % inhibition male (individual replicates) R4 [1, 7]: -25.6%; Average inhibition male (%) [1, 5]: -17.4%; % inhibition female (individual replicates) R1 [2, 7]: 2.5%; % inhibition female (individual replicates) R3 [2, 7]: -2.1%; % inhibition female (individual replicates) R4 [2, 7]: 17.4%; Average inhibition female (%) [2, 5]: 2.8% |
| Cl.c1cc(CNC2Cc3ccccc3C2)cc(-c2cnc(N3CCNCC3)nc2)c1 [TCMDC-133140] | 40.3% | 37.9% | 14.1% | 54.9% | – | – | 27.8% | 25.6% | 8.0% | 43.1% | – | HitlevelM [1, 11]: 2; HitlevelF [2, 12]: 0 |
| CN1CCCC1CCNCc1cccc(-c2cnc(N(C)C3CCCCC3)nc2)c1 (stereo not shown) [TCMDC-133141] | – | – | – | – | – | – | – | – | – | – | – | Average inhibition male (%) [1, 8]: 74.0%; % inhibition male (individual replicates) R1 [1, 8]: 71.5%; % inhibition male (individual replicates) R3 [1, 8]: 68.9%; % inhibition male (individual replicates) R4 [1, 8]: 81.6%; HitlevelM [1, 9]: 4; Average inhibition female (%) [2, 8]: 34.0%; % inhibition female (individual replicates) R1 [2, 8]: 30.5%; % inhibition female (individual replicates) R3 [2, 8]: 11.1%; % inhibition female (individual replicates) R4 [2, 8]: 42.8%; HitlevelF [2, 10]: 1 |
| CCCN(CC1CC1)c1ncc(-c2cccc(CNCCC3CCCN3C)c2)cn1 (stereo not shown) [TCMDC-133142] | 41.7% | 43.1% | 28.4% | 53.6% | 1 | 0 | 16.5% | 26.9% | 12.7% | -0.1% | 0 | – |
